Results from ChEMBL document CHEMBL3865802, “Natural product-inspired rational design, synthesis and biological evaluation of 2,3-dihydropyrano[2,3-f]chromen-4(8H)-one based hybrids as potential mitochondrial apoptosis inducers” (Eur J Med Chem, 2016).
The source made the active and inactive calls. The calls are words filed in the database; no cut-off is given here.

How the values were obtained:
[1] = Cytotoxicity against human A549 cells assessed as cell growth inhibition after 24 hrs by MTT assay; format: functional, cell-based; conditions: A549, 24 h
[2] = system: MCF7; experiment: Induction of apoptosis in human MCF7 cells at antiproliferative IC50 assessed as late apoptotic cells after 48 hrs by AO/EB dual staining-based fluorescent microscopic analysis; format: functional, cell-based
[3] = Hemolytic activity against human RBC at 28.7 uM after 4 hrs; format: ADME, cell-based; conditions: erythrocyte
[4] = system: MCF7; experiment: Induction of apoptosis in human MCF7 cells assessed as cytoskeleton breakdown at antiproliferative IC50 after 48 hrs by hoechst 33258 staining-based fluorescent microscopic analysis; format: functional, cell-based
[5] = system: MCF7; experiment: Induction of apoptosis in human MCF7 cells assessed as morphological changes at antiproliferative IC50 by AO/EB dual staining-based fluorescent microscopic analysis; format: functional, cell-based; conditions: TDE = time-dependent effect
[6] = system: MCF7; experiment: Induction of apoptosis in human MCF7 cells assessed as chromatin condensation at antiproliferative IC50 after 24 hrs by hoechst 33258 staining-based fluorescent microscopic analysis; format: functional, cell-based
[7] = Cytotoxicity against human HeLa cells assessed as cell growth inhibition after 24 hrs by MTT assay; format: functional, cell-based
[8] = system: MCF7; experiment: Induction of apoptosis in human MCF7 cells assessed as presence of apoptotic bodies at antiproliferative IC50 after 24 hrs by hoechst 33258 staining-based fluorescent microscopic analysis; format: functional, cell-based
[9] = system: MCF7; experiment: Induction of apoptosis in human MCF7 cells assessed as DNA fragmentation at antiproliferative IC50 after 24 hrs by ethidium bromide staining based agarose gel electrophoresis method; format: functional, cell-based
[10] = Downregulation of Bcl2 protein expression in human MCF7 cells at antiproliferative IC50 after 24 hrs by Western blot analysis; format: functional, cell-based
[11] = system: MCF7; experiment: Induction of apoptosis in human MCF7 cells assessed as fragmented nuclei at antiproliferative IC50 after 24 hrs by hoechst 33258 staining-based fluorescent microscopic analysis; format: functional, cell-based
[12] = Cytotoxicity against human MCF7 cells assessed as cell growth inhibition after 24 hrs by MTT assay; format: functional, cell-based; conditions: MCF7, 24 h
[13] = system: MCF7; experiment: Induction of apoptosis in human MCF7 cells assessed as early apoptotic cells at antiproliferative IC50 after 24 hrs by AO/EB dual staining-based fluorescent microscopic analysis; format: functional, cell-based
[14] = system: MCF7; experiment: Induction of apoptosis in human MCF7 cells assessed as plasma membrane blebbing at antiproliferative IC50 after 48 hrs by hoechst 33258 staining-based fluorescent microscopic analysis; format: functional, cell-based
[15] = Upregulation of Bax protein expression in human MCF7 cells at antiproliferative IC50 after 24 hrs by Western blot analysis; format: functional, cell-based
[16] = system: MCF7; experiment: Induction of apoptosis in human MCF7 cells assessed as increase in number of abnormal cells at antiproliferative IC50 by hoechst 33258 staining-based fluorescent microscopic analysis; format: functional, cell-based; conditions: TDE = time-dependent effect
[17] = Downregulation of Bcl2 mRNA expression in human MCF7 cells assessed as Bcl2 mRNA expression level at antiproliferative IC50 after 24 hrs by RT-qPCR analysis relative to control; format: functional, cell-based
[18] = system: MCF7; experiment: Induction of mitochondrial membrane potential depolarization in human MCF7 cells assessed as increase in green fluorescence at 26.2 uM after 24 to 48 hrs by JC-1 staining-based fluorescent microscopic analysis; format: functional, cell-based
[19] = Downregulation of Bcl2 mRNA expression in human MCF7 cells assessed as Bcl2 mRNA expression level at antiproliferative IC50 after 12 hrs by RT-qPCR analysis relative to control; format: functional, cell-based
[20] = Downregulation of Bcl2 mRNA expression in human MCF7 cells assessed as Bcl2 mRNA expression level at antiproliferative IC50 after 48 hrs by RT-qPCR analysis relative to control; format: functional, cell-based
[21] = Hemolytic activity against human RBC at 26.2 uM after 4 hrs; format: ADME, cell-based; conditions: erythrocyte
[22] = system: MCF7; experiment: Induction of mitochondrial membrane potential loss in human MCF7 cells assessed as accumulation of cells at upper right quadrant at 26.2 uM after 48 hrs by JC-1 staining-based fluorescent microscopic analysis (reference value: 0.2 %); format: functional
[23] = system: MCF7; experiment: Induction of mitochondrial membrane potential loss in human MCF7 cells assessed as accumulation of cells at lower right quadrant at 26.2 uM after 48 hrs by JC-1 staining-based fluorescent microscopic analysis (reference value: 0.1 %); format: functional
[24] = Hemolytic activity against human RBC at 31.2 uM after 4 hrs; format: ADME, cell-based; conditions: erythrocyte
[25] = Hemolytic activity against human RBC at 14.36 uM after 4 hrs; format: ADME, cell-based; conditions: erythrocyte
[26] = system: MCF7; experiment: Induction of mitochondrial membrane potential depolarization in human MCF7 cells assessed as increase in green fluorescence at 14.3 uM after 24 to 48 hrs by JC-1 staining-based fluorescent microscopic analysis; format: functional, cell-based
[27] = system: MCF7; experiment: Induction of mitochondrial membrane potential loss in human MCF7 cells assessed as accumulation of cells at upper right quadrant at 14.3 uM after 48 hrs by JC-1 staining-based fluorescent microscopic analysis (reference value: 0.2 %); format: functional
[28] = system: MCF7; experiment: Induction of mitochondrial membrane potential loss in human MCF7 cells assessed as accumulation of cells at lower right quadrant at 14.3 uM after 48 hrs by JC-1 staining-based fluorescent microscopic analysis (reference value: 0.1 %); format: functional

In the case of `CC1Oc2c(cc(C(=O)Nc3cccnc3)c3c2C=CC(C)(C)O3)C(=O)C1C` (stereo unspecified), the IC50 [1] is reported as 26.9 µM, the Activity [2] is reported as “Active” and the Activity [3] is reported as “Non-Toxic”. For the same compound, the Activity [4] was “Active”, the Activity [5] was “Tde” and the Activity [6] was “Active”. The IC50 [7] was 41.2 µM, the Activity [8] was “Active” and the Activity [9] was “Active”. The Activity [10] was “Active”, the Activity [11] was “Active” and the IC50 [12] was 28.7 µM. For the same compound, the Activity [13] was “Active”, the Activity [14] was “Active” and the Activity [15] was “Active”. The Activity [16] was “Tde”.

`CC1Oc2c(cc(C(=O)Nc3nnc(-c4cccs4)s3)c3c2C=CC(C)(C)O3)C(=O)C1C` (stereo unspecified) showed an IC50 [1] of 74.5 µM, an IC50 [7] of 92.8 µM and an IC50 [12] of 78.2 µM.

Work on `COc1cc2c(cc1OC)[C@@H]1C(=O)c3ccc4c(c3O[C@@H]1CO2)C=CC(C)(C)O4` [DEGUELIN] yielded an IC50 [12] of 10.6 µM.

For `CC1Oc2c(cc(C(=O)Nc3ccncc3)c3c2C=CC(C)(C)O3)C(=O)C1C` (stereo unspecified), the IC50 [1] was 39.3 µM, the Activity [2] was “Active” and the Activity [4] was “Active”. The Activity [17] was 64%, the Activity [18] was “Active” and the Activity [5] was “Tde”. For the same compound, the Activity [6] was “Active”, the Activity [19] was 92.2% and the IC50 [7] was 28.6 µM. The Activity [8] was “Active”, the Activity [9] was “Active” and the Activity [10] was “Active”. For the same compound, the Activity [20] was 57%, the Activity [21] was “Non-Toxic” and the Activity [22] was 79.8%. The Activity [11] was “Active”, the IC50 [12] was 26.2 µM and the Activity [23] was 20.2%. The Activity [13] was “Active”, the Activity [14] was “Active” and the Activity [15] was “Active”. For the same compound, the Activity [16] was “Tde”.

Compound `COc1cc(-c2nnc(NC(=O)c3cc4c(c5c3OC(C)(C)C=C5)OC(C)C(C)C4=O)s2)cc(OC)c1OC` (stereo unspecified) has an IC50 [1] of 79.3 µM, an IC50 [7] of 97.8 µM and an IC50 [12] of 70 µM.

In the case of `CC1Oc2c(cc(C(=O)Nc3nnc(-c4ccc([N+](=O)[O-])cc4)s3)c3c2C=CC(C)(C)O3)C(=O)C1C` (stereo unspecified), the IC50 [1] is reported as 42.3 µM, the Activity [2] is reported as “Active” and the Activity [4] is reported as “Active”. The Activity [5] was “Tde”, the Activity [6] was “Active” and the IC50 [7] was 42.9 µM. The Activity [8] was “Active”, the Activity [9] was “Active” and the Activity [10] was “Active”. For the same compound, the Activity [11] was “Active”, the IC50 [12] was 31.2 µM and the Activity [13] was “Active”. For the same compound, the Activity [14] was “Active”, the Activity [15] was “Active” and the Activity [24] was “Non-Toxic”. For the same compound, the Activity [16] was “Tde”.

`CC1Oc2c(cc(C(=O)Nc3nnc(-c4ccccc4)s3)c3c2C=CC(C)(C)O3)C(=O)C1C` (stereo unspecified) gave an IC50 [1] of 32.4 µM, an IC50 [7] of 40.2 µM and an IC50 [12] of 37.8 µM.

With `Cc1ccc(-c2nnc(NC(=O)c3cc4c(c5c3OC(C)(C)C=C5)OC(C)C(C)C4=O)s2)cc1` (stereo unspecified) the IC50 [1] was 20.2 µM, the Activity [2] was “Active” and the Activity [4] was “Active”. The Activity [17] was 46%, the Activity [5] was “Tde” and the Activity [25] was “Non-Toxic”. For the same compound, the Activity [6] was “Active”, the Activity [26] was “Active” and the Activity [19] was 82.7%. The IC50 [7] was 25.2 µM, the Activity [8] was “Active” and the Activity [9] was “Active”. The Activity [10] was “Active”, the Activity [20] was 39.7% and the Activity [11] was “Active”. The Activity [27] was 86.3%, the IC50 [12] was 14.3 µM and the Activity [13] was “Active”. For the same compound, the Activity [14] was “Active”, the Activity [15] was “Active” and the Activity [16] was “Tde”. The Activity [28] was 13.7%.

Work on `CC1Oc2c(cc(C(=O)Nc3nccs3)c3c2C=CC(C)(C)O3)C(=O)C1C` (stereo unspecified) yielded an IC50 [1] of 64.4 µM, an IC50 [7] of 84 µM and an IC50 [12] of 75 µM.

With `c1ccc([C@H]2CN3CCSC3=N2)cc1` [LEVAMISOLE] the IC50 [1] was > 100 µM, the IC50 [7] was 96 µM and the IC50 [12] was > 100 µM.

`CC1Oc2c(cc(C(=O)Nc3nnc(-c4ccncc4)s3)c3c2C=CC(C)(C)O3)C(=O)C1C` (stereo unspecified) showed an IC50 [1] of 75 µM, an IC50 [7] of 74.3 µM and an IC50 [12] of 57.9 µM.

`CC1Oc2c(cc(C(=O)O)c3c2C=CC(C)(C)O3)C(=O)C1C` (stereo unspecified) gave an IC50 [1] of 116 µM, an IC50 [7] of 102 µM and an IC50 [12] of 88.7 µM.

With `CC1Oc2c(cc(C(=O)Nc3cccc4ccccc34)c3c2C=CC(C)(C)O3)C(=O)C1C` (stereo unspecified) the IC50 [1] was 58.1 µM, the IC50 [7] was 41.7 µM and the IC50 [12] was 48.1 µM.
